Test results reported in patent publication US12258308B2, “Benzene derivative” (ONO PHARMACEUTICAL CO., LTD., priority 2018, dated 2025).

Columns and labels:
rat Schwann cells = assay: In vitro test using Schwann cells (Schwann cell differentiation promotion, MAG immunostaining); assay type: cell-based; settings: Rattus norvegicus, 72 h, 3 days, MAG-positive area/cell nuclei; for activity at 0.3 µM: compound 0.3 μmol/L, read-out: Schwann cell differentiation promotion rate (% of vehicle) 0.3 μmol/L; for activity at 3 µM: compound 3 μmol/L, read-out: Schwann cell differentiation promotion rate (% of vehicle) 3 μmol/L
Procedure: Biological Experiment Example 1: In Vitro Test Using Schwann Cells
• (1) Preparation of rat Schwann cells
A dorsal root ganglion (abbreviated as “DRG”, hereinafter) was excised from a newborn rat aged 0 to 2 days in a clean bench and was collected in DMEM. After the collection, the tube was centrifuged at 400 g, at room temperature for 3 minutes, then a supernatant was discarded, and a 0.25% collagenase solution was added. There resultant solution was incubated at 37° C. for 30 minutes to disperse and separate the excised DRG, and was then centrifuged at room temperature at 400 g for 3 minutes, then a supernatant was discarded, and then 0.25% Trypsin/EDTA and DNaseI were added. After the incubation at 37° C. for 30 minutes, trypsin was inactivated with DMEM supplemented with 10% FBS (10% FBS-DMEM), and centrifugation was carried out at room temperature at 400 g for 3 minutes. A supernatant was discarded, then 10% FBS-DMEM was added to the residue to prepare a cell suspension, and then the cell suspension was allowed to pass through a filter (diameter: 70 μm). The number of cells in the cell suspension which passed through the filter was counted to prepare a solution having a concentration of 2.0×10^5 cells/mL, and the suspension was seeded in a poly-D-lysine-coated 96-well black-clear plate in an amount of 100 μL/well and was then statically cultured in a CO2 incubator under the conditions including 5% of CO2, 95% of air and 37° C.
The culture medium in the cell culture plate was removed by suction using an aspirator, and then DMEM supplemented with 1% dialyzed FBS and 100 μmol/L dibutyryl cyclic AMP was added. Subsequently, a solution of a compound of the present invention dissolved in DMSO was added, and the resultant solution was statically cultured in a C02 incubator under the conditions including 5% of C02, 95% of air and a temperature of 37° C. The final concentration of the compound of the present invention in each well in the cell culture plate was adjusted to 0.1, 0.3, 1 or 3 μmol/L.
Three days after the treatment with the compound, formaldehyde was added to each well in the cell culture plate, and the cell culture plate was allowed to stand at room temperature for 30 minutes or longer. A supernatant was discarded, and then a 0.3% tritonX-100 solution was added to each well, and then the cell culture plate was allowed to stand at room temperature for 20 minutes or longer. A supernatant was discarded, then a 5-μg/mL anti-myeline-associated glycoprotein antibody (anti-MAG antibody) solution was added to each well, and then the cell culture plate was allowed to stand at room temperature for 60 minutes or longer or at 4° C. (acceptable range: 1 to 9° C.) overnight. Each well was washed with a 0.1% tritonX-100 solution three times, then a 10-μg/mL Alexa fluor 488 anti-mouse IgG solution was added to each well, and then the cell culture plate was allowed to stand at room temperature for 60 or longer or at 4° C. overnight. Each well was washed with a 0.1% tritonX-100 solution four times, and then a 1-μg/mL Hoechst33342 solution was added to each well to stain nuclei.
The Mag-positive area and the number of cell nuclei in a fluorescent image were calculated. With respect to each of the MAG-positive area and the number of cell nuclei, the sum total of values obtained in 5 viewing fields/well was determined. The values were employed as a value for the MAG-positive area and a value for the number of cell nuclei, respectively, in each well. Subsequently, a value determined by dividing the value for the MAG-positive area in each well by the value for the number of cell nuclei in the well (i.e., MAG/cell nuclei numerical value) was calculated. The Schwann cell differentiation promotion rate was determined for each of the vehicles in accordance with the following formula. […]

[1] = tested on: streptozotocin-induced rat model; assay: Test using streptozotocin-induced rat model (nociceptive threshold, von Frey); assay type: in vivo; settings: for Nociceptive threshold improve rate (%) 7 days after withdrawal of administration: 0.3 mg/kg oral once per day day 14 to 28, 35 days after STZ; for Nociceptive threshold improve rate (%) After initial single administration: 14 days after STZ, 2 hours after administration; for Nociceptive threshold improve rate (%) 7 days after start of administration: 21 days after STZ; for Nociceptive threshold improve rate (%) 14 days after start of administration: 28 days after STZ
Procedure: Biological Experiment Example 2: Test Using Streptozotocin-Induced Rat Model
In order to evaluate the therapeutic effect of each of the compounds of the present invention on diabetic peripheral neuropathy, an in vivo test using a streptozotocin model was carried out.
A model was produced by intravenously administering streptozotocin (abbreviated as “STZ”, hereinafter) one time at a dose amount of 55 mg/kg to a rat.
(2) Measurement of Nociceptive Threshold
The rat was placed in a clear acryl measurement cage once or more times for 10 minutes or longer until the administration of STZ started. In this manner, the rat was acclimated to the measurement environment. Eight von Frey filaments respectively having weights of 0.4, 0.6, 1, 2, 4, 6, 8 and 15 g were applied vertically to a hindpaw of the rat from under a metallic mesh floor. When a quick escape or flinching reaction was observed, it was determined that a positive reaction occurred (i.e., “response was observed”). Each of the compounds of the present invention was administered orally once per day in a period from day 14 to day 28 after the administration of STZ, wherein the dose amount of each of the compounds was 0.03, 0.3 or 3 mg/kg. A nociceptive threshold was measured 2 hours after the administration of each of the compounds of the present invention at the timings of before the administration of STZ, 14 days after the administration of STZ (i.e., the day of the start of the administration of each of the compounds of the present invention), 21 days after the administration of STZ (i.e., 7 days after the start of the administration of the compound), 28 days after the administration of STZ (i.e., 14 days after the start of the administration of the compound), and 35 days after the administration of STZ (i.e., 7 days after the withdrawal of the administration of the compound).
The nociceptive threshold was measured by the up-down method in accordance with the method of Chaplan et. al. (J Neurosci Methods. 1994; 53:55-63). The rate of improvement in the nociceptive threshold was calculated in accordance with the following formula. Nociceptive threshold improve rate (%)=(nociceptive threshold on each of the number of days elapsed after administration of STZ−B)/(A−B)×100 [Math 2] • A: Nociceptive threshold before administration of STZ • B: Nociceptive threshold on 14 days elapsed after administration of STZ (Results)
The results of the nociceptive thresholds and the nociceptive threshold improve rates obtained when each of the compounds of the present invention was administered at a dose amount of 0.3 mg/kg are shown in the FIGURE and Table 2, respectively. With respect to all of the compounds, a potent pain relief effect against peripheral neuropathy was observed. With respect to the compound of Example 11, for example, the improvement in the nociceptive threshold was observed from 7 days after the start of the administration of the compound, and this effect lasted even 7 days after the withdrawal of the administration.

| Compound | activity at 0.3 µM (rat Schwann cells) [%] | activity at 3 µM (rat Schwann cells) [%] | Nociceptive threshold improve rate (%) 7 days after withdrawal of administration [1] [%] | Nociceptive threshold improve rate (%) After initial single administration ([1]; 0.3 mg/kg oral once per day) [%] | Nociceptive threshold improve rate (%) 7 days after start of administration ([1]; 0.3 mg/kg oral once per day) [%] | Nociceptive threshold improve rate (%) 14 days after start of administration ([1]; 0.3 mg/kg oral once per day) [%] | Pain relief effect against peripheral neuropathy ([1]; 0.3 mg/kg oral once per day, STZ rat) |
| --- | --- | --- | --- | --- | --- | --- | --- |
| O=C(O)CCc1ccccc1OCC[C@@H](O)/C=C/c1ccc2c(c1)CN(S(=O)(=O)c1ccccc1)C2 [Example 13(16), 3-[2-[(E,3R)-5-[2-(Benzenesulfonyl)-1,3-dihydroisoindol-5-yl]-3-hydroxypent-4-enoxy]phenyl]Propanoic Acid] | 170 | 377 | −7.8 ± 14.90 | −6.0 ± 3.87 | 25.8 ± 5.28 | 29.6 ± 8.19 |  |
| O=C(O)CCc1ccccc1OCC[C@@H](O)/C=C/c1cccc2c1CCN2S(=O)(=O)c1ccccc1 [Example 13(15), 3-[2-[(E,3R)-5-[1-(Benzenesulfonyl)-2,3-dihydroindol-4-yl]-3-hydroxypent-4-enoxy]phenyl]propanoic Acid] | 219 | 326 | 7.1 ± 9.51 | −15.4 ± 14.26 | 15.9 ± 7.17 | 8.5 ± 11.50 |  |
| O=C(O)CCc1ccccc1OCC[C@@H](O)/C=C/c1cccc(NS(=O)(=O)C2CCCC2)c1 [Example 74(13), 3-[2-[(E,3R)-5-[3-(Cyclopentylsulfonylamino)phenyl]-3-hydroxypent-4-enoxy]phenyl]propanoic acid] | 79.9 | 184 | 76.3 ± 13.41 | 2.6 ± 1.69 | 28.3 ± 7.44 | 57.3 ± 17.63 |  |
| O=C(O)CCc1ccccc1OCCC/C=C/c1cccc(NS(=O)(=O)c2ccccc2)c1 [Example 84, 3-[2-[(E)-5-[3-(Benzenesulfonamido)phenyl]pent-4-enoxy]phenyl]propanoic acid] | 162 | 445 | 58.8 ± 12.51 | 5.7 ± 2.48 | 35.0 ± 16.24 | 49.9 ± 11.50 |  |
| O=C(O)CCc1ccccc1OCC[C@@H](O)CCc1cccc(C(O)Cc2ccccc2)c1 (stereo in doubt) [Example 36, 3-[2-[(3S)-3-Hydroxy-5-[3-[(1R)-1-hydroxy-2-phenylethyl]phenyl]pentoxy]phenyl]propanoic acid] | 126 | 732 | 57.4 ± 10.74 | 3.6 ± 7.07 | 57.1 ± 13.78 | 64.2 ± 13.02 |  |
| O=C(O)CCc1ccccc1OCC[C@@H](O)/C=C/c1cccc(NS(=O)(=O)c2ccccc2)c1 [Example 11, 3-[2-[(E,3R)-5-[3-(Benzenesulfonamido)phenyl]-3-hydroxypent-4-enoxy]phenyl]propanoic acid] | 114 | 248 | 41.1 ± 13.71 | −14.6 ± 6.37 | 26.6 ± 9.30 | 27.1 ± 8.39 | a sustained pain relief effect was confirmed |
| O=C(O)CCc1ccccc1OCC[C@@H](O)/C=C/c1cccc(NC(=O)c2ccccc2)c1 [Example 12(1), 3-[2-[(E,3R)-5-(3-Benzamidophenyl)-3-hydroxypent-4-enoxy]phenyl]propanoic acid] | 120 | 274 | 9.1 ± 13.37 | 6.2 ± 5.72 | 17.4 ± 17.19 | 44.6 ± 11.54 |  |
| O=C(O)CCc1ccccc1OCC[C@@H](O)CCc1cccc(C(O)Cc2ccccc2)c1 (stereo in doubt) [Example 37, 3-[2-[(3S)-3-Hydroxy-5-[3-[(1S)-1-hydroxy-2-phenylethyl]phenyl]pentoxy]phenyl]propanoic acid] | 171 | 915 | 58.7 ± 19.84 | −11.9 ± 10.78 | 61.3 ± 16.58 | 78.9 ± 9.85 |  |
